Literature values as cited in patent US20080095838A1, “Solid pharmaceutical composition containing a lipophilic active principle and preparation method thereof” (CLL Pharma, priority 2002, published 2008).
Where a name gives a salt, the structure may show the parent alone.

How the values were obtained:
[1] = in vivo
[2] = in water

Compound: CC(C)OC(=O)C(C)(C)Oc1ccc(C(=O)c2ccc(Cl)cc2)cc1 [fenofibrate, 2-(4-(4-chlorobenzoyl)phenoxy)-2-methylpropanoic acid 1-methylethyl ester]
- elimination half-life [1]: approximately 20 hours

Compound: CC(C)(C)NC(=O)[C@@H]1C[C@@H]2CCCC[C@@H]2CN1C[C@@H](O)[C@H](Cc1ccccc1)NC(=O)[C@H](CC(N)=O)NC(=O)c1ccc2ccccc2n1 [saquinavir mesylate]
- solubility [2]: 2.22 mg/mL
